Results published in ChEMBL document CHEMBL4304795, “Bis-benzoxaboroles: Design, Synthesis, and Biological Evaluation as Carbonic Anhydrase Inhibitors” (ACS Med Chem Lett, 2019).
pKi: −log10 of the molar value.

Experiments:
[1] = biological target: Carbonic anhydrase 1 (Homo sapiens, UniProt P00915); assay: Inhibition of human carbonic anhydrase 1 assessed as reduction in CO2 hydration preincubated for 15 mins to 2 hrs by phenol red dye based stopped flow CO2 hydrase assay
[2] = biological target: Carbonic anhydrase 2 (Homo sapiens, UniProt P00918); assay: Inhibition of human carbonic anhydrase 2 assessed as reduction in CO2 hydration preincubated for 15 mins to 2 hrs by phenol red dye based stopped flow CO2 hydrase assay
[3] = biological target: Carbonic anhydrase 9 (Homo sapiens, UniProt Q16790); assay: Inhibition of human carbonic anhydrase 9 assessed as reduction in CO2 hydration preincubated for 15 mins to 2 hrs by phenol red dye based stopped flow CO2 hydrase assay
[4] = biological target: Carbonic anhydrase 4 (Homo sapiens, UniProt P22748); assay: Inhibition of human carbonic anhydrase 4 assessed as reduction in CO2 hydration preincubated for 15 mins to 2 hrs by phenol red dye based stopped flow CO2 hydrase assay
Sequence of Carbonic anhydrase 4 (P22748 whole entry): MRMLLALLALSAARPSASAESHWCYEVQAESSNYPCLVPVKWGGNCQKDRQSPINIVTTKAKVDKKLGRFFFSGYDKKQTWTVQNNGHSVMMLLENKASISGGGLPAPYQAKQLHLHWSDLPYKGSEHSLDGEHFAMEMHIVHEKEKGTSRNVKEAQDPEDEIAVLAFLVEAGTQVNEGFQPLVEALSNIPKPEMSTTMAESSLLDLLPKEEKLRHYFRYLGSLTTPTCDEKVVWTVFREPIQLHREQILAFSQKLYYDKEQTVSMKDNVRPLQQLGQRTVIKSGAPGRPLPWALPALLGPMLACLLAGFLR

Sequence of Carbonic anhydrase 1 (P00915 whole entry): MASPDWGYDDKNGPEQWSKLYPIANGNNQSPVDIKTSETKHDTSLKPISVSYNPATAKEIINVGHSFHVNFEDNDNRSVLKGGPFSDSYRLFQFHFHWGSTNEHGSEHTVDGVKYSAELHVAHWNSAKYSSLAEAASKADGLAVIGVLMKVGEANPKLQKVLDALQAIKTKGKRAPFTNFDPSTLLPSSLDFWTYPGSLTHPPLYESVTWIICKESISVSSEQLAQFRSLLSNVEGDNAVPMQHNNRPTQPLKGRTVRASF

SMILES	pKi [1]	pKi [2]	pKi [3]	pKi [4]
O=C(CCC(=O)Nc1ccc2c(c1)B(O)OC2)Nc1ccc2c(c1)B(O)OC2	5.54	6.47	6.17	–
O=C(/C=C/C=C/C(=O)Nc1ccc2c(c1)B(O)OC2)Nc1ccc2c(c1)B(O)OC2	5.48	5.41	5.31	–
O=c1c(Nc2ccc3c(c2)B(O)OC3)c(Nc2ccc3c(c2)B(O)OC3)c1=O	5.51	5.64	–	–
O=C(O)c1ccc2c(c1)B(O)OC2	6.07	6.76	6.40	–
O=C(C/C=C/CC(=O)Nc1ccc2c(c1)B(O)OC2)Nc1ccc2c(c1)B(O)OC2	5.61	5.59	5.95	–
O=C(CC(=O)Nc1ccc2c(c1)B(O)OC2)Nc1ccc2c(c1)B(O)OC2	6.05	6.47	6.80	–

More lines, now with the values ahead:

pKi [1]	pKi [2]	pKi [3]	pKi [4]	SMILES
5.49	5.77	5.83	–	O=C(/C=C/C(=O)Nc1ccc2c(c1)B(O)OC2)Nc1ccc2c(c1)B(O)OC2
5.78	6.27	6.51	–	O=C(CCCCC(=O)Nc1ccc2c(c1)B(O)OC2)Nc1ccc2c(c1)B(O)OC2
4.66	4.41	5.06	< 4.00	O=C(Nc1ccc2c(c1)B(O)OC2)c1cc(C(=O)Nc2ccc3c(c2)B(O)OC3)cc(C(=O)Nc2ccc3c(c2)B(O)OC3)c1
6.09	6.04	6.55	–	CC(C)(C)OC(=O)N[C@@H](CC(=O)Nc1ccc2c(c1)B(O)OC2)C(=O)Nc1ccc2c(c1)B(O)OC2
5.38	5.63	6.69	–	OB1OCc2ccc(/N=C/c3ccc(/C=N/c4ccc5c(c4)B(O)OC5)s3)cc21
5.75	6.54	7.19	–	O=C(CC[C@H](NC(=O)OCc1ccccc1)C(=O)Nc1ccc2c(c1)B(O)OC2)Nc1ccc2c(c1)B(O)OC2
